# Assay results taken from patent EP0670711B1, “ANTIFUNGAL MOUTHCARE COMPOSITIONS” (AMBI Inc., priority 1992, dated 1994).
# How the values were obtained:
# Type in all cases: cell-based
# [1] = test system: Strep. agalactiæ; test: nominal inhibitory concentration (NIC) assay; conditions: read-out: NIC
# [2] = test system: Strep. sanguis; test: nominal inhibitory concentration (NIC) assay; conditions: read-out: NIC
# [3] = test system: Strep.mutans; test: nominal inhibitory concentration (NIC) assay; conditions: Streptococcus mutans, read-out: NIC
# [4] = test system: Strep. milleri; test: nominal inhibitory concentration (NIC) assay; conditions: read-out: NIC
# [5] = test system: Strep. mitis; test: nominal inhibitory concentration (NIC) assay; conditions: Streptococcus mitis, read-out: NIC
# [6] = test system: Strep mitior; test: nominal inhibitory concentration (NIC) assay; conditions: read-out: NIC
# [7] = test system: Strep. salivarius; test: nominal inhibitory concentration (NIC) assay; conditions: Streptococcus salivarius, read-out: NIC
# [8] = test system: Strep.pyogenes; test: nominal inhibitory concentration (NIC) assay; conditions: Streptococcus pyogenes, read-out: NIC
# [9] = test system: Staph.aureus; test: nominal inhibitory concentration (NIC) assay; conditions: Staphylococcus aureus, read-out: NIC
# [10] = test system: A actinomyces NCTC 9709; test: zone diffusion assay; conditions: solution with 500ppm of each agent
# Excerpt: (§1) The assay was repeated for each of cetyl pyridinium chloride, chlorhexidine or triclosan individually. […]
# [11] = test system: C albicans NCTC 3089; test: zone diffusion assay; conditions: solution with 500ppm of each agent
# Excerpt: as §1
# [12] = test system: C kefyr NCTC 3106; test: zone diffusion assay; conditions: solution with 500ppm of each agent
# Excerpt: as §1
# [13] = test system: C tropicalis NCTC 3114; test: zone diffusion assay; conditions: solution with 500ppm of each agent
# Excerpt: as §1
# [14] = test system: F nucleatum NCTC 10562; test: zone diffusion assay; conditions: solution with 500ppm of each agent
# Excerpt: as §1
# [15] = test system: S mutans NCTC 11061; test: zone diffusion assay; conditions: solution with 500ppm of each agent
# Excerpt: as §1
# [16] = test system: S sanguis NCTC 10904; test: zone diffusion assay; conditions: solution with 500ppm of each agent
# Excerpt: as §1
# [17] = test system: W recta NCTC 11489; test: zone diffusion assay; conditions: solution with 500ppm of each agent
# Excerpt: as §1
# [18] = test system: G.vaginalis; test: nominal inhibitory concentration (NIC) assay; conditions: Gardnerella vaginalis, read-out: NIC
# [19] = test system: Lacto odontolyticus; test: nominal inhibitory concentration (NIC) assay; conditions: read-out: NIC
# [20] = test system: Act. odontolyticus; test: nominal inhibitory concentration (NIC) assay; conditions: Schaalia odontolytica, read-out: NIC
# [21] = test system: Act. israelii; test: nominal inhibitory concentration (NIC) assay; conditions: Actinomyces israelii, read-out: NIC
# [22] = test system: Act. naeslundii; test: nominal inhibitory concentration (NIC) assay; conditions: Actinomyces naeslundii, read-out: NIC
# [23] = test system: Act. actinomycetem; test: nominal inhibitory concentration (NIC) assay; conditions: read-out: NIC
# [24] = test system: Fuso. nucleatum; test: nominal inhibitory concentration (NIC) assay; conditions: Fusobacterium nucleatum, read-out: NIC
# [25] = test system: Bact. intermedius; test: nominal inhibitory concentration (NIC) assay; conditions: Prevotella intermedia, read-out: NIC
# [26] = test system: Peptostrepto. micros; test: nominal inhibitory concentration (NIC) assay; conditions: read-out: NIC
# [27] = test system: Porph. gingivalis; test: nominal inhibitory concentration (NIC) assay; conditions: Porphyromonas gingivalis, read-out: NIC
# [28] = test system: Bact. ureolyticus; test: nominal inhibitory concentration (NIC) assay; conditions: read-out: NIC
# [29] = test system: Candida albicans; test: nominal inhibitory concentration (NIC) assay; conditions: read-out: NIC
# [30] = test system: Candida kefyr; test: nominal inhibitory concentration (NIC) assay; conditions: Kluyveromyces marxianus, read-out: NIC
# [31] = test system: Candida tropicalis; test: nominal inhibitory concentration (NIC) assay; conditions: read-out: NIC
# [32] = test system: all the organisms shown in the Example 25 Table 1; test: NIC assay, summary over all organisms of Table 1; conditions: read-out: levels needed to inhibit all the desired oral microrganisms
# [33] = test system: Candida organisms; test: NIC assay, summary for Candida
# [34] = test system: Strep. agalactiæ; test: nominal inhibitory concentration (NIC) assay
# [35] = test system: Strep. sanguis; test: nominal inhibitory concentration (NIC) assay
# [36] = test system: Strep.mutans; test: nominal inhibitory concentration (NIC) assay
# [37] = test system: Strep. milleri; test: nominal inhibitory concentration (NIC) assay
# [38] = test system: Strep. mitis; test: nominal inhibitory concentration (NIC) assay
# [39] = test system: Strep mitior; test: nominal inhibitory concentration (NIC) assay
# [40] = test system: Strep. salivarius; test: nominal inhibitory concentration (NIC) assay
# [41] = test system: Strep.pyogenes; test: nominal inhibitory concentration (NIC) assay
# [42] = test system: Staph.aureus; test: nominal inhibitory concentration (NIC) assay
# [43] = test system: G.vaginalis; test: nominal inhibitory concentration (NIC) assay
# [44] = test system: Lacto odontolyticus; test: nominal inhibitory concentration (NIC) assay
# [45] = test system: Act. odontolyticus; test: nominal inhibitory concentration (NIC) assay
# [46] = test system: Act. israelii; test: nominal inhibitory concentration (NIC) assay
# [47] = test system: Act. naeslundii; test: nominal inhibitory concentration (NIC) assay
# [48] = test system: Act. actinomycetem; test: nominal inhibitory concentration (NIC) assay
# [49] = test system: Fuso. nucleatum; test: nominal inhibitory concentration (NIC) assay
# [50] = test system: Bact. intermedius; test: nominal inhibitory concentration (NIC) assay
# [51] = test system: Peptostrepto. micros; test: nominal inhibitory concentration (NIC) assay
# [52] = test system: Porph. gingivalis; test: nominal inhibitory concentration (NIC) assay
# [53] = test system: Bact. ureolyticus; test: nominal inhibitory concentration (NIC) assay
# [54] = test system: Candida albicans; test: nominal inhibitory concentration (NIC) assay
# [55] = test system: Candida kefyr; test: nominal inhibitory concentration (NIC) assay
# [56] = test system: Candida tropicalis; test: nominal inhibitory concentration (NIC) assay
# [57] = test system: all the organisms shown in the Example 25 Table 1; test: NIC assay, summary over all organisms of Table 1; conditions: all organisms of Example 25 Table 1 (for CPC: kills all the organisms)
# Excerpt: (§2) Thus, lower levels of such antimicrobial agent may be used in the present invention if it intended that such antimicrobial agent is being included principally to provide anti-Candida activity, to supplement the gap in the spectrum of activity of nisin.
# [58] = test system: Candida organisms; test: NIC assay, summary for Candida; conditions: result in words
# Excerpt: as §2
compound,measurement,setting,value
"Oc1cc(Cl)ccc1Oc1ccc(Cl)cc1Cl [TCN, triclosan]",MIC,[1],4.96 µg/mL
same,MIC,[2],0.88 µg/mL
same,MIC,[3],1.11 µg/mL
same,MIC,[4],1.08 µg/mL
same,MIC,[5],3.94 µg/mL
same,MIC,[6],4.23 µg/mL
same,MIC,[7],4.05 µg/mL
same,MIC,[8],4.35 µg/mL
same,MIC,[9],0.09 µg/mL
same,mean zones,[10],35.92 mm
same,mean zones,[11],16.99 mm
same,mean zones,[12],21.99 mm
same,mean zones,[13],13.66 mm
same,mean zones,[14],33.98 mm
same,mean zones,[15],32.82 mm
same,mean zones,[16],28.97 mm
same,mean zones,[17],37.20 mm
same,MIC,[18],0.41 µg/mL
same,MIC,[19],7.49 µg/mL
same,MIC,[20],3.02 µg/mL
same,MIC,[21],3.19 µg/mL
same,MIC,[22],1.98 µg/mL
same,MIC,[23],1.69 µg/mL
same,MIC,[24],1.6 µg/mL
same,MIC,[25],3.72 µg/mL
same,MIC,[26],6.76 µg/mL
same,MIC,[27],4 µg/mL
same,MIC,[28],7.65 µg/mL
same,MIC,[29],1 µg/mL
same,MIC,[30],0.46 µg/mL
same,MIC,[31],0.35 µg/mL
same,MIC,[32],~7.65 µg/mL
same,MIC,"[33]; Candida, read-out: levels for Candida inhibition",~1 µg/mL
same,inhibitory activity against candida species,"[33]; result in words, NIC assay",effective
nisin [Ambicin N],NIC,[34],0.22 ppm
same,NIC,[35],0.23 ppm
same,NIC,[36],0.43 ppm
same,NIC,[37],0.14 ppm
same,NIC,[38],0.33 ppm
same,NIC,[39],0.05 ppm
same,NIC,[40],0.18 ppm
same,NIC,[41],0.009 ppm
same,NIC,[42],0.13 ppm
same,NIC,[43],0.22 ppm
same,NIC,[44],0.02 ppm
same,NIC,[45],0.12 ppm
same,NIC,[46],0.53 ppm
same,NIC,[47],>12.8 ppm
same,NIC,[48],0.02 ppm
same,NIC,[49],0.048 ppm
same,NIC,[50],0.91 ppm
same,NIC,[51],>1.28 ppm
same,NIC,[52],>1.28 ppm
same,NIC,[53],0.035 ppm
same,NIC,[54],>128 ppm
same,NIC,[55],>128 ppm
same,NIC,[56],>128 ppm
same,mean zones,[10],23.04 mm
same,mean zones,[11],0 mm
same,mean zones,[12],0 mm
same,mean zones,[13],0 mm
same,mean zones,[14],29.38 mm
same,mean zones,[15],18.36 mm
same,mean zones,[16],15.38 mm
same,mean zones,[17],28.19 mm
same,levels needed to inhibit all the desired oral microrganisms,[57],about 0.99 ppm
same,inhibitory activity against candida species,[58],lacks effective inhibitory activity
